Laboratory results reported in paper PMC12700559, “Structural basis for simvastatin-induced skeletal muscle weakness associated with type 1 ryanodine receptor T4709M mutation” (The Journal of Clinical Investigation, 2025).

How the values were obtained:
RyR1 BSM1 mutant = target: T1, RyR1 BSM1 mutant (Mus musculus, UniProt E9PZQ0, W4792A); test: [3H]simvastatin radioligand binding
T1 construct: recombinant RyR1 on HEK293 ER microsomes

[1] = target: T2, type 1 ryanodine receptor (RyR1) (Mus musculus, UniProt E9PZQ0); test: [3H]simvastatin radioligand binding; single-channel recordings show activation
T2 construct: recombinant WT RyR1 on HEK293 ER microsomes (also endogenous RyR1 from mouse skeletal muscle)
T2 sequence (E9PZQ0 whole entry): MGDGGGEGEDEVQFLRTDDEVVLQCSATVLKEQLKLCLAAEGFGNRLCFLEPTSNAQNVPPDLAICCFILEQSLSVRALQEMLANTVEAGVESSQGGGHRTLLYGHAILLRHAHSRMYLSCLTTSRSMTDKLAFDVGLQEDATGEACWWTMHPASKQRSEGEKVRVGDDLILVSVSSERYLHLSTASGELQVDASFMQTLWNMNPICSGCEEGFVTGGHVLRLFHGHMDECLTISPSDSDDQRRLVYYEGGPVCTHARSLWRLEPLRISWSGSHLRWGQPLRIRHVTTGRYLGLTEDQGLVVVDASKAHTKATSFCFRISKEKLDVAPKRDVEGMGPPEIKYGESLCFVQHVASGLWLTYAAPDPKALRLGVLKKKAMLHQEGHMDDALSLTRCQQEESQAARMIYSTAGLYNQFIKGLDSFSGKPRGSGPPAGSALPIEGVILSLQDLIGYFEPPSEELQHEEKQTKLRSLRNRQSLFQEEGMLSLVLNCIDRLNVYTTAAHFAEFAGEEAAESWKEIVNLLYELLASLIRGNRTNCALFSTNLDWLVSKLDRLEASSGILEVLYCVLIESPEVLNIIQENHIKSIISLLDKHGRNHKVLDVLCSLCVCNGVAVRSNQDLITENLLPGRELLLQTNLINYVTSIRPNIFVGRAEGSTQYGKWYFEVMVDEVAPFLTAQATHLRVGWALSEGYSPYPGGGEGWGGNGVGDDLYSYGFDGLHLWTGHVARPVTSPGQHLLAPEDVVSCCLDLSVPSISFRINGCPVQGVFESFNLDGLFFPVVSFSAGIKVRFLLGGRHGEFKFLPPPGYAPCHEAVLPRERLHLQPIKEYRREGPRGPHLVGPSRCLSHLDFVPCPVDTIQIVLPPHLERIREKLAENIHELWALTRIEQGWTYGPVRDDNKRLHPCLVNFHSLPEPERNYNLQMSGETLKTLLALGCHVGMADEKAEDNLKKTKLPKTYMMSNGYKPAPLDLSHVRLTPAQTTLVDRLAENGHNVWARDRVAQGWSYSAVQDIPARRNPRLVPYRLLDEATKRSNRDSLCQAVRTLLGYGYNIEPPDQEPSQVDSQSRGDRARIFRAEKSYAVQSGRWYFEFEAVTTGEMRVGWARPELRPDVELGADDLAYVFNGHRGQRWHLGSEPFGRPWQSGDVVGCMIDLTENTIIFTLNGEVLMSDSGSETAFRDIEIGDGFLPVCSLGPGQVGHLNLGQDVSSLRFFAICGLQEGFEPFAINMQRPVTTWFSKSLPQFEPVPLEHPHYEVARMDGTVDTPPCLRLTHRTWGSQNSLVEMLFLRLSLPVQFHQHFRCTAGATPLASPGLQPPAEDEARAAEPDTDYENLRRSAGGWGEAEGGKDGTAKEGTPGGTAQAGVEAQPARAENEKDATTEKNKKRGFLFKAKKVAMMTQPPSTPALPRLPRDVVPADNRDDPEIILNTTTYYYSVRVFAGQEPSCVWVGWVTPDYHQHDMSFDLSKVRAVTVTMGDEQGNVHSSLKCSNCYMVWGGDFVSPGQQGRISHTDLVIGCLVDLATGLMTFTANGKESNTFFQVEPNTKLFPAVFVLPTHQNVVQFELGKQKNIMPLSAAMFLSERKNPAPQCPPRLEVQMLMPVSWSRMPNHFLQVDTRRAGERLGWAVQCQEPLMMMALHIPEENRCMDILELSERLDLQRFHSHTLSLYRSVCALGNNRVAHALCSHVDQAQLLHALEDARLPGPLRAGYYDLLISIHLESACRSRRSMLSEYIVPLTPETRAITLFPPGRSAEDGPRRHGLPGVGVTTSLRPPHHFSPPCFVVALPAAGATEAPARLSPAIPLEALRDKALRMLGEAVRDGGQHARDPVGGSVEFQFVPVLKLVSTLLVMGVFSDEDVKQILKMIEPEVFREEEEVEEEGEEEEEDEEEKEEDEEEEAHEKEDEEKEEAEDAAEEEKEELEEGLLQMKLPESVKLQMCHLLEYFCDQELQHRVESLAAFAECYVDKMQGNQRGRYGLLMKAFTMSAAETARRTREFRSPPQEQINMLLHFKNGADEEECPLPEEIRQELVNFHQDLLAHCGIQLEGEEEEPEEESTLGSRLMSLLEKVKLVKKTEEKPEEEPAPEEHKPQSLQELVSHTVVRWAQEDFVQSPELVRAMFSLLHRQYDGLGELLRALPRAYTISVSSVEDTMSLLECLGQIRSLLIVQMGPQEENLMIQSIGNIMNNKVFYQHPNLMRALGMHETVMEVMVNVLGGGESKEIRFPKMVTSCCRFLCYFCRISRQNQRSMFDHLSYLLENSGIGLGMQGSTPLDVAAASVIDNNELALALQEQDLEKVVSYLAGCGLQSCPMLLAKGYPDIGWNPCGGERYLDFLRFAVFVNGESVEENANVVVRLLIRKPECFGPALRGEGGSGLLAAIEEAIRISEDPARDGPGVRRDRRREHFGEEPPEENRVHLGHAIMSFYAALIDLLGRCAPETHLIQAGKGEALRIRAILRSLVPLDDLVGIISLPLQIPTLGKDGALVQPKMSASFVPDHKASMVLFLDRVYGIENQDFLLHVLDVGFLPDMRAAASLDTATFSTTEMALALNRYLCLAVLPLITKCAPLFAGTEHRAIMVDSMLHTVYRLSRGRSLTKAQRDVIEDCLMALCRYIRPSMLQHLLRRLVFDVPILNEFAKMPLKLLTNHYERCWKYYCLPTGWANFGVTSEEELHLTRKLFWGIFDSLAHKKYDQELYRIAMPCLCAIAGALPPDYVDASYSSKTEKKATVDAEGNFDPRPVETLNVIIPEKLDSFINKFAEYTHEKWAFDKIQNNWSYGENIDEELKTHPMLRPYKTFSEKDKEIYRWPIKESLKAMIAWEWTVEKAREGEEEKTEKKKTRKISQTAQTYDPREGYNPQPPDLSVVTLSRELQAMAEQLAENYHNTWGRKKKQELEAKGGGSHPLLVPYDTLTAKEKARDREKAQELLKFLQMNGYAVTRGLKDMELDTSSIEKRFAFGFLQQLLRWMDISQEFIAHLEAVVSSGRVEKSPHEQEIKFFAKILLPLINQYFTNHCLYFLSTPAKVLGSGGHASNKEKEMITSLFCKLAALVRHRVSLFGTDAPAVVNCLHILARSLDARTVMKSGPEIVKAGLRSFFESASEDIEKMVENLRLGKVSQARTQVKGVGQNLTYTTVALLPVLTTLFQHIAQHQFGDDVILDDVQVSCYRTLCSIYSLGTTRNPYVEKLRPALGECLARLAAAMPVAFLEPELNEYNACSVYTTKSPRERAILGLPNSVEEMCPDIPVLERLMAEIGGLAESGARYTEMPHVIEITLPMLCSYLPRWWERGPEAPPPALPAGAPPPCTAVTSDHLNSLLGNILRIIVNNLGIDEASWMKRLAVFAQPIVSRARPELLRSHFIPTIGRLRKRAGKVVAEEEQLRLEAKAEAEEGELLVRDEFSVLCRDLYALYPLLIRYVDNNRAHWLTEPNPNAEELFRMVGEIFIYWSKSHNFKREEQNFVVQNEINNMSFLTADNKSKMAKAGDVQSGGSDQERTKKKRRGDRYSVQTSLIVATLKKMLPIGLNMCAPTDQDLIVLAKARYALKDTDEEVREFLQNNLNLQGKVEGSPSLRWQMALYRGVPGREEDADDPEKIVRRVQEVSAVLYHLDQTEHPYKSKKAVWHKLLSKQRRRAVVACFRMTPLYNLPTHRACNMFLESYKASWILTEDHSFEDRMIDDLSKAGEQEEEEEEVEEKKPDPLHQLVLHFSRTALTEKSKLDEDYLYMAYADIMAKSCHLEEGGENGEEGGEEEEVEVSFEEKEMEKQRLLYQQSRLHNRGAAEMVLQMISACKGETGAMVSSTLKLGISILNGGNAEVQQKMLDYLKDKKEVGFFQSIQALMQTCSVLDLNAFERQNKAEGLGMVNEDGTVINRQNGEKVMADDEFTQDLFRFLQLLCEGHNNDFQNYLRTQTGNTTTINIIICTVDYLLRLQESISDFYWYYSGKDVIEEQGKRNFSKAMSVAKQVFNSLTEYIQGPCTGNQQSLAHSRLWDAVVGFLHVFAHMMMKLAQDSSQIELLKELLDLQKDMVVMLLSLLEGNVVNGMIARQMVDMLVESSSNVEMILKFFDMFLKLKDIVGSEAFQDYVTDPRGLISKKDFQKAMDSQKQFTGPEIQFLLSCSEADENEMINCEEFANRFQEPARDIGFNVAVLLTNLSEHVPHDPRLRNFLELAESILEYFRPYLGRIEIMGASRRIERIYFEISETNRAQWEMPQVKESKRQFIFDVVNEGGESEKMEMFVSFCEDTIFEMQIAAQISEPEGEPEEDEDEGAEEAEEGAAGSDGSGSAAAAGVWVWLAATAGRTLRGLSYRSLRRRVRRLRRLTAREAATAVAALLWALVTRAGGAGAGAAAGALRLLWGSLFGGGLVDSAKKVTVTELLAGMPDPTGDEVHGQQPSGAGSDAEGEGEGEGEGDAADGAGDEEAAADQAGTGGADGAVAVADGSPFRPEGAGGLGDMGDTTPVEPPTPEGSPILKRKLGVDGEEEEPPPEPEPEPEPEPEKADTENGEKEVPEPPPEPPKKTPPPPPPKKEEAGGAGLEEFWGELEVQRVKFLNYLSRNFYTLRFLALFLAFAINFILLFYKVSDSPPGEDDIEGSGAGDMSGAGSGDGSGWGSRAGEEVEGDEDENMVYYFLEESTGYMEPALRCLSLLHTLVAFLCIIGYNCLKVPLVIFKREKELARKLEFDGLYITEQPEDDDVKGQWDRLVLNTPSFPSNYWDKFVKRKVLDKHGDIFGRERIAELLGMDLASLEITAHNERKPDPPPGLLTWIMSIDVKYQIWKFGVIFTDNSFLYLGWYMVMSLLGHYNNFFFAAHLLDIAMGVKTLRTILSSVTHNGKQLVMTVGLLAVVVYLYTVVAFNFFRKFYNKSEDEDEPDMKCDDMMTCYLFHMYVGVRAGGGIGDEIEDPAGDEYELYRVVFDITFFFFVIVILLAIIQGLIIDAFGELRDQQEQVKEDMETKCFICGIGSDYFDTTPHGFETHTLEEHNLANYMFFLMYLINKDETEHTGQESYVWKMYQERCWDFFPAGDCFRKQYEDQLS

T1 sequence (E9PZQ0 whole entry W4792A): as the sequence (E9PZQ0 whole entry) above, with W4792A counted along it

Kd (RyR1 BSM1 mutant): ~7.1 µM
Kd [1]: 0.69 µM
Structure (SMILES): CCC(C)(C)C(=O)O[C@H]1C[C@@H](C)C=C2C=C[C@H](C)[C@H](CC[C@@H](O)C[C@@H](O)CC(=O)O)[C@H]21 [simvastatin acid]
